Among the data in patent US8586747B2, “3,3-dimethyl tetrahydroquinoline derivatives” (Hoffmann-La Roche Inc., priority 2010, dated 2013) are E30 values, retold here.

The test system of the assay is AMP-activated protein kinase (AMPK). Description: ADP Quest assay for AMPK activators. Format: biochemical. Further details: key: fold AMPK activation with vs without activator at 30 µM. The settings on record: fold of AMPK activation to phosphorylate SAMS peptide without and with an activator at the concentration of 30 µM. In outline: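 E30, the fold increase in SAMS peptide phosphorylation at 30 µM compound relative to no activator, is derived from kinetic fluorescent detection of ADP (ex 530, em 590 nm). AMPK starts the ATP-containing reaction at room temperature; compounds span […] by 2-fold steps, AMP serves as reference.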
In the case of `CC1(C)Cc2c(ccc(Cl)c2C(=O)O)NC1c1cccc(N2CCOCC2)c1` (stereo not drawn) [Example 95, 6-Chloro-3,3-dimethyl-2-(3-morpholin-4-yl-phenyl)-1,2,3,4-tetrahydro-quinoline-5-carboxylic acid], the E30 is 1.56.
`CC1(C)Cc2cc(C(=O)O)ccc2NC1c1cccc(C(=O)N2CCCCC2)c1` (stereo not drawn) [Example 191, 3,3-Dimethyl-2-(3-(piperidine-1-carbonyl)phenyl)-1,2,3,4-tetrahydroquinoline-6-carboxylic acid] had an E30 of 1.27.
`COc1cc(C2Nc3ccc(C(=O)NS(C)(=O)=O)cc3CC2(C)C)cc(N2CCOCC2)c1` (stereo not drawn) [Example 68, N-[2-(3-Methoxy-5-morpholin-4-yl-phenyl)-3,3-dimethyl-1,2,3,4-tetrahydro-quinoline-6-carbonyl]-methanesulfonamide]: the E30 is 1.33.
With `CC1(C)Cc2cc(C(=O)O)ccc2NC1c1ccc(NC(=O)C2=CCCCC2)cc1` (stereo not drawn) [Example 217, 2-(4-(Cyclohex-1-enecarboxamido)phenyl)-3,3-dimethyl-1,2,3,4-tetrahydroquinoline-6-carboxylic acid] the figure was 1.27; with `CC1CN(c2cccc(C3Nc4ccc(C(=O)NS(=O)(=O)C5CC5)cc4CC3(C)C)c2)CC(C)O1` (stereo not drawn) [Example 105, Cyclopropanesulfonic acid {2-[3-(2,6-dimethyl-morpholin-4-yl)-phenyl]-3,3-dimethyl-1,2,3,4-tetrahydro-quinoline-6-carbonyl}-amide], 1.35; with `CC1(C)Cc2cc(C(=O)O)ccc2NC1c1ccc(F)c(NS(=O)(=O)c2ccccc2F)c1` (stereo not drawn) [Example 209, 2-(4-Fluoro-3-(2-fluorophenylsulfonamido)phenyl)-,3-dimethyl-1,2,3,4-tetrahydroquinoline-6-carboxylic acid], 1.28.
Take `CC(C)(Nc1cccc(C2Nc3ccc(Cl)cc3CC2(C)C)c1)C(=O)O` (stereo not drawn) [Example 37, 2-[3-(6-Chloro-3,3-dimethyl-1,2,3,4-tetrahydro-quinolin-2-yl)-phenylamino]-2-methyl-propionic acid]: the E30 came to 2.19.
For `CN1CCN(C(=O)C(C)(C)Nc2cccc(C3Nc4ccc(C(=O)O)cc4CC3(C)C)c2)CC1` (stereo not drawn) [Example 42, 2-{3-[1,1-Dimethyl-2-(4-methyl-piperazin-1-yl)-2-oxo-ethylamino]-phenyl}-3,3-dimethyl-1,2,3,4-tetrahydro-quinoline-6-carboxylic acid], the E30 was determined as 1.31.
For `CC(C)NC(=O)c1cccc(C2Nc3ccc(C(=O)O)cc3CC2(C)C)c1` (stereo not drawn) [Example 173, 2-(3-(Isopropylcarbamoyl)phenyl)-3,3-dimethyl-1,2,3,4-tetrahydroquinoline-6-carboxylic acid], the E30 is listed as 1.24.
Molecule `CC1(C)Cc2cc(C(=O)NS(C)(=O)=O)ccc2NC1c1ccc(F)c(N2CCOCC2)c1` (stereo not drawn) [Example 59, N-[2-(4-Fluoro-3-morpholin-4-yl-phenyl)-3,3-dimethyl-1,2,3,4-tetrahydro-quinoline-6-carbonyl]-methanesulfonamide] yielded an E30 of 1.2.
As to `CC1(C)Cc2cc(C(=O)O)ccc2NC1c1ccc(F)c(NC(=O)C2CC2)c1` (stereo not drawn) [Example 189, 2-(3-(Cyclopropanecarboxamido)-4-fluorophenyl)-3,3-dimethyl-1,2,3,4-tetrahydroquinoline-6-carboxylic acid], the E30 came out at 1.31.
For `CC1(C)Cc2c(ccc(F)c2C(=O)O)NC1c1cccc(N2CCOCC2)c1` (stereo not drawn) [Example 121, 6-Fluoro-3,3-dimethyl-2-(3-morpholin-4-yl-phenyl)-1,2,3,4-tetrahydro-quinoline-5-carboxylic acid], the E30 was 1.42.
Then `CN(C(N)=O)c1cccc(C2Nc3ccc(C(=O)O)cc3CC2(C)C)c1` (stereo not drawn) [Example 31, 3,3-Dimethyl-2-[3-(1-methyl-ureido)-phenyl]-1,2,3,4-tetrahydro-quinoline-6-carboxylic acid], with 1.33.
`CC1(C)Cc2cc(C(=O)O)ccc2NC1c1cccc(C(=O)NS(=O)(=O)C2CC2)c1` (stereo not drawn) [Example 176, 2-(3-(Cyclopropylsulfonylcarbamoyl)-phenyl)-3,3-dimethyl-1,2,3,4-tetrahydroquinoline-6-carboxylic acid]: the E30 came to 1.44.
With `CC1(C)Cc2cc(C(=O)O)ccc2NC1c1ccc(F)c(Cl)c1` (stereo not drawn) [Example 113, 2-(3-Chloro-4-fluoro-phenyl)-3,3-dimethyl-1,2,3,4-tetrahydro-quinoline-6-carboxylic acid], the E30 turned out to be 1.21.
With `CC(C)NS(=O)(=O)c1cccc(C2Nc3ccc(C(=O)O)cc3CC2(C)C)c1` (stereo not drawn) [Example 221, 2-(3-(N-isopropylsulfamoyl)phenyl)-3,3-dimethyl-1,2,3,4-tetrahydroquinoline-6-carboxylic acid], the E30 amounted to 1.33.
In turn, `CC1(C)Cc2cc(C(=O)NS(=O)(=O)C3CC3)ccc2NC1c1cc(F)cc(F)c1` (stereo not drawn) [Example 52, Cyclopropanesulfonic acid [2-(3,5-difluoro-phenyl)-3,3-dimethyl-1,2,3,4-tetrahydro-quinoline-6-carbonyl]-amide] gave an E30 of 1.35.
As to `CC1(C)Cc2cc(C(=O)O)ccc2NC1c1ccccc1NS(=O)(=O)c1ccc(F)cc1` (stereo not drawn) [Example 218, 2-(2-(4-Fluorophenylsulfonamido)phenyl)-3,3-dimethyl-1,2,3,4-tetrahydroquinoline-6-carboxylic acid], the E30 came out at 2.53.
For the molecule `CC1(C)Cc2cc(C(=O)NS(=O)(=O)C3CC3)ccc2NC1c1ccc(F)c(N2CCOCC2)c1` (stereo not drawn) [Example 58, Cyclopropanesulfonic acid [2-(4-fluoro-3-morpholin-4-yl-phenyl)-3,3-dimethyl-1,2,3,4-tetrahydro-quinoline-6-carbonyl]-amide], the E30 came to 1.22.
Take `CC(C)(Nc1cccc(C2Nc3ccc(C(=O)O)cc3CC2(C)C)c1)C(=O)N1CCOCC1` (stereo not drawn) [Example 41, 2-[3-(1,1-Dimethyl-2-morpholin-4-yl-2-oxo-ethylamino)-phenyl]-3,3-dimethyl-1,2,3,4-tetrahydro-quinoline-6-carboxylic acid]: the E30 turned out to be 1.35.
Consider `CC1(C)Cc2cc(C(=O)O)ccc2NC1c1cccc(-c2ccc(Cl)cc2)c1` (stereo not drawn) [Example 109, 2-(4′-Chloro-biphenyl-3-yl)-3,3-dimethyl-1,2,3,4-tetrahydro-quinoline-6-carboxylic acid], for which the E30 is 1.24.
Then `CC1(C)Cc2cc(C(=O)O)ccc2NC1c1ccccc1NS(=O)(=O)c1ccccc1` (stereo not drawn) [Example 220, 3,3-Dimethyl-2-(2-(phenylsulfonamido)phenyl)-1,2,3,4-tetrahydroquinoline-6-carboxylic acid], with 1.89; and `CC1(C)Cc2cc(C(=O)NS(C)(=O)=O)ccc2NC1c1cccc(N2CCNCC2)c1` (stereo not drawn) [Example 103, N-[3,3-Dimethyl-2-(3-piperazin-1-yl-phenyl)-1,2,3,4-tetrahydro-quinoline-6-carbonyl]-methanesulfonamide], with 1.37; and `CC1(C)Cc2cc(C(=O)NS(C)(=O)=O)ccc2NC1c1cccc(N2CCOCC2)c1` (stereo not drawn) [Example 8, N-[3,3-dimethyl-2-(3-morpholin-4-yl-phenyl)-1,2,3,4-tetrahydro-quinoline-6-carbonyl]-methanesulfonamide], with 1.29.
Then `CC1(C)Cc2cc(C(=O)O)ccc2NC1c1cccc(N2CCN(c3ccccc3)C2=O)c1` (stereo not drawn) [Example 26, 3,3-Dimethyl-2-[3-(2-oxo-3-phenyl-imidazolidin-1-yl)-phenyl]-1,2,3,4-tetrahydro-quinoline-6-carboxylic acid], with 1.27; and `CC1(C)Cc2cc(Cl)cc(C(=O)O)c2NC1c1cccc(N2CCOCC2)c1` (stereo not drawn) [Example 100, 6-Chloro-3,3-dimethyl-2-(3-morpholin-4-yl-phenyl)-1,2,3,4-tetrahydro-quinoline-8-carboxylic acid], with 1.4; and `COCCNC(=O)c1cccc(C2Nc3ccc(C(=O)O)cc3CC2(C)C)c1` (stereo not drawn) [Example 192, 2-(3-(2-Methoxyethylcarbamoyl)phenyl)-3,3-dimethyl-1,2,3,4-tetrahydroquinoline-6-carboxylic acid], with 1.27.
Regarding `CC1(C)Cc2cc(C(=O)NS(C)(=O)=O)ccc2NC1c1cccc(N2C(=O)OC[C@H]2Cc2ccccc2)c1` (stereo partly drawn) [Example 128, N-{2-[3-((R)4-Benzyl-2-oxo-oxazolidin-3-yl)-phenyl]-3,3-dimethyl-1,2,3,4-tetrahydro-quinoline-6-carbonyl}-methanesulfonamide], the E30 turned out to be 1.26.
In the case of `Cc1ccccc1N1CCN(c2cccc(C3Nc4c(cc(Cl)cc4C(=O)O)CC3(C)C)c2)CC1` (stereo not drawn) [Example 82, 6-Chloro-3,3-dimethyl-2-[3-(4-o-tolyl-piperazin-1-yl)-phenyl]-1,2,3,4-tetrahydro-quinoline-8-carboxylic acid], the E30 was 1.5.
In turn, `CC1(C)Cc2cc(C(=O)O)cc(Cl)c2NC1c1cccc(N2CCOCC2)c1` (stereo not drawn) [Example 112, 8-Chloro-3,3-dimethyl-2-(3-morpholin-4-yl-phenyl)-1,2,3,4-tetrahydro-quinoline-6-carboxylic acid] registered an E30 of 1.22.
With `CC(C)[C@@H]1COC(=O)N1c1cccc(C2Nc3ccc(C(=O)NS(C)(=O)=O)cc3CC2(C)C)c1` (stereo partly drawn) [Example 123, N-{2-[3-((R)-4-Isopropyl-2-oxo-oxazolidin-3-yl)-phenyl]-3,3-dimethyl-1,2,3,4-tetrahydro-quinoline-6-carbonyl}-methanesulfonamide] the figure was 1.36.
Turning to `CC1(C)Cc2cc(C(=O)O)ccc2NC1c1cccc(S(=O)(=O)N2CCCC2)c1` (stereo not drawn) [Example 227, 3,3-Dimethyl-2-(3-(pyrrolidin-1-ylsulfonyl)phenyl)-1,2,3,4-tetrahydroquinoline-6-carboxylic acid], the E30 was 1.2.
As to `CC1(C)Cc2cc(C(=O)O)ccc2NC1c1cccc(N2C(=O)OCC2Cc2ccccc2)c1` (stereo in doubt) [Example 124, 2-[3-((S)-4-Benzyl-2-oxo-oxazolidin-3-yl)-phenyl]-3,3-dimethyl-1,2,3,4-tetrahydro-quinoline-6-carboxylic acid], the E30 turned out to be 1.34.
